Source: article PMC12074917, “Molecular pharmacokinetic mechanism of JBP485 against aristolochic acid I (AAI) -induced nephrotoxicity” (Frontiers in Pharmacology, 2025)

What was measured:
[1] = test system: AAI-induced nephrotoxicity in rats; experiment: Toxicity study in rats (AAI-induced nephrotoxicity, AAN): histology, biochemical indicators, oxidative stress markers, Western blotting of kidney; format: in vivo, rat
Description: For the assessment of toxicity, AAI was suspended in olive oil and JBP485 was dissolved in saline. Rats were randomly divided into the following four groups (n = 5 per group): A control group, which was administered saline intraperitoneally (i.p.) and olive oil orally (p.o.); a JBP485-only group, administered JBP485 i. p. at the dose of 50 mg/kg and olive oil p. o.; an AAI-only group, in which the rats were administered AAI p. o. at the dose of 20 mg/kg and saline i. p.; and a JBP485 + AAI group, where the animals were given AAI p. o. at the dose of 20 mg/kg and JBP485 i. p. at the dose of 50 mg/kg. JBP485 was intraperitoneally administered 2 days before AAI treatment. On day 3 and 30 min after AAI administration, rats were given saline i. p. or JBP485 (50 mg/kg) once daily for 7 days. On day 10, the rats were euthanized and blood, urine, and kidneys were collected for subsequent assays.
Indoxyl sulfate levels in plasma and urine of rats were determined by liquid chromatography-tandem mass spectrometry (LC–MS/MS) (API 3200; Applied Biosystems, Foster City, CA, United States) according to our previous study ([Guo et al., 2013]).
The levels of BUN and CRE in rat plasma were detected following the instructions of the Nanjing Jiancheng Institute of Biotechnology (Nanjing, China). Samples and reagents were added according to the instructions of the kit and reactions were carried out under the specified conditions. Absorbance was measured at 520 nm and 546 nm, respectively, and the quantities were calculated based on the corresponding formula.
For the extraction of total protein, 100 mg of fresh kidney tissue was placed in 1 mL of RIPA buffer containing protease inhibitor, phosphatase inhibitor, and PMSF, cut into small pieces with ophthalmic scissors, homogenized, and placed at 4°C to fully lyse for 20 min, with vortexing every 5 min. Following centrifugation at 12,000 rpm for 20 min at 4°C, the protein concentration in the supernatant was determined using a BCA protein quantification kit. The protein concentrations of all the samples were then adjusted to the lowest protein concentration measured. Subsequently, an appropriate amount of 5× loading buffer was added according to the volume, and the samples were placed in boiling water for 10 min. Equal amounts of protein (40 μg) were separated by SDS–PAGE at constant current (120 mA), transferred to a PVDF membrane by wet transfer, blocked in 5% non-fat dry milk for 2 h, and incubated overnight with primary antibodies. The next day, the samples were incubated with the corresponding secondary antibodies (goat anti-rabbit IgG [H&L], 1:2000, or goat anti-mouse IgG [H&L], 1:2000) for 2 h at room temperature. The protein bands were developed using enhanced chemiluminescence (ECL, YH0009-1, Nanjing Crane Biopharmaceuticals, Nanjing, China) and Tanon-5200 system (Shanghai Tianneng Technology Company, Shanghai, China) while ImageJ 6.0 software was used for analysis.

NRK-52E cells = experiment: Intracellular ROS level by DCFH-DA flow cytometry; format: cell-based, rat
Description: NRK-52E cells were plated in 6-well culture plates at a density of 5 ×10^4 cells/mL and treated with various concentrations of JBP485 (62.5, 125 and 250 μM) for 2.5 h. After challenge with AAI (11 μM) for 24 h, the cells were harvested and resuspended in 500 μL of DCFH-DA (10 μM) for the detection of ROS by flow cytometry (Becton Dickinson, United States) (Aagaard et al., 2014).

[2] = JBP485 50 mg/kg i.p. co-administered with AAI 20 mg/kg p.o.
[3] = JBP485 co-administered with AAI
[4] = JBP485 co-administered with AAI vs AAI alone
[5] = JBP485 treatment with AAI vs AAI alone
[6] = AAI group vs control, Western blot

For O=C1N[C@@H](CO)C(=O)N2C[C@H](O)C[C@@H]12 (relative stereo) [JBP485, cyclo-trans-4-L-hydroxyprolyl-L-serine], the AAI-induced weight loss [1, 2] was “significantly prevented”, the renal morphology [1, 2] was “markedly improved” and the “expression levels of Bcl-2 and Bax in the kidney” value ([1]; JBP485-only treatment group) was “no change”. For the same compound, the “body weight or renal morphology” value ([1]; JBP485 alone 50 mg/kg i.p.) was “did not influence”, the “kidney histology (H&E)” value ([1]; JBP485 alone vs control) was “no significant difference” and the “AAI effect on Bax expression in the kidney” value [1, 3] was “notably reversed”. For the same compound, the “AAI effect on Bcl-2 expression in the kidney” value [1, 3] was “notably reversed”, the “AAI-induced histopathological effects in the kidney (H&E)” value [1, 3] was “significantly mitigated” and the “kidney weight-to-body weight ratio” value [1, 4] was “reduced”. The “plasma level of BUN” value [1, 4] was “opposite trend”, the “plasma level of CRE” value [1, 4] was “opposite trend” and the “plasma level of indoxyl sulfate” value [1, 4] was “opposite trend”. The “urine level of indoxyl sulfate” value [1, 4] was “opposite trend”, the “protein expressions of Oat1, Oat3, Oct2, P-gp, Mrp2 and Mate1 in the kidney” value ([1]; JBP485 co-administered with AAI vs AAI alone, Western blot) was “significantly increased” and the “AAI effect on HO-1 protein level in the kidney” value [1, 5] was “reversed”. For the same compound, the “AAI effect on MDA levels in the kidney” value [1, 5] was “reversed”, the “AAI effect on NQO1 protein level in the kidney” value [1, 5] was “reversed” and the “AAI effect on SOD level in the kidney” value [1, 5] was “reversed”. For the same compound, the “ROS production in NRK-52E cells” value (NRK-52E cells; JBP485 alone vs control) was “did not alter” and the “AAI-induced rise in ROS production in NRK-52E cells” value (NRK-52E cells; JBP485 co-administered with AAI 11 μM) was “significantly attenuated”.

With COc1cccc2c1cc([N+](=O)[O-])c1c(C(=O)O)cc3c(c12)OCO3 [AAI, Aristolochic Acid I] the “kidney histology (H&E)” value ([1]; AAI 20 mg/kg p.o.) was “showed damage”, the body weight ([1]; AAI 20 mg/kg p.o. vs control) was “significantly decreased” and the “kidney weight-to-body weight ratio” value ([1]; AAI 20 mg/kg p.o. vs control) was “increase”. For the same compound, the “MDA levels in the kidney” value ([1]; AAI group vs control) was “markedly increased”, the “SOD level in the kidney” value ([1]; AAI group vs control) was “significantly decreased” and the “plasma level of BUN” value ([1]; AAI group vs control) was “significantly higher”. For the same compound, the “plasma level of CRE” value ([1]; AAI group vs control) was “significantly higher”, the “plasma level of indoxyl sulfate” value ([1]; AAI group vs control) was “significantly higher” and the “urine level of indoxyl sulfate” value ([1]; AAI group vs control) was “lower”. The “Bax expression in the kidney” value [1, 6] was “increased”, the “Bcl-2 expression in the kidney” value [1, 6] was “decreased” and the “HO-1 protein level in the kidney” value [1, 6] was “significantly decreased”. The “NQO1 protein level in the kidney” value [1, 6] was “significantly decreased”, the “renal transporter expression (Oat1, Oat3, Oct2, P-gp, Mrp2, Mate1)” value ([1]; AAI-treated rats, Western blot) was “downregulation” and the “ROS generation in NRK-52E cells” value (NRK-52E cells; AAI alone 11 μM 24 h vs control) was “significant increase”.
